Measurements reported in PMC10205807, “Cross-species comparison in nonclinical pharmacokinetics of lenvatinib by a simple HPLC with ultraviolet detection” (Scientific Reports, 2023).

Assays:
[1] = PK study in monkeys (intravenous and oral); assay type: in vivo, cynomolgus monkeys
Protocol: Male cynomolgus monkeys were supplied from Prestasi Fauna Nusantara Ltd. (Jakarta, Indonesia) and were housed at Shin Nippon Biomedical Laboratories, Ltd. The PK study was performed in a cross-over design with 7 days interval between the doses for monkeys aged 3–4 years old. Monkeys were fasted a day before the PK study and feeding was resumed 4 h postdose. Dosing solution of lenvatinib used was the same as that in the other animal PK studies. Lenvatinib was intravenously administered at the dose of 3 mg/kg via cephalic vein. In oral administration, lenvatinib at 3 mg/kg was dosed by using a nasogastric catheter, followed by giving 30 mL of water to flush the remaining dosing solution in the catheter. The number of monkeys at each dose was four. Approximately 0.5 mL of blood samples were serially collected from the femoral vein using a heparinized syringe at pre-dose, and at 5, 15 and 30 min, and 1, 2, 4, 6, 8, 12 and 24 h post-dose. Plasma sample preparation and sample storage were the same as those in the other PK studies.
(§1) PK parameters of lenvatinib were estimated by model independent analysis using a WinNonlin program (Version 4.1, Pharsight Corporation, Mountain View, CA). The time to reach the maximum plasma concentration (Tmax) and the maximum plasma concentration (Cmax) values were obtained directly from the plasma concentration data. Terminal half-life (T1/2) was calculated by ln2/ke, where ke is the slope of the regression line that fits the portion of the terminal phase (at least three time points) in the log-linear concentration–time curve. AUC0–t and AUMC0–t, the area under the concentration–time curves and the area under the first moment curve, from time = zero to time = t, respectively, were calculated using the lenvatinib concentrations in plasma by the linear/log trapezoidal method. AUC0–inf was calculated by AUC0–t + Ct/ke, and AUMC0–inf was AUMC0–t + Ct × t/ke + Ct/(ke)^2, where Ct is the last measurable concentration at time = t. The plasma concentration at time zero for the intravenous dose was extrapolated, while zero was used for the oral doses. Mean residence time (MRT), total plasma clearance (CLtot) and the volume of distribution at steady state (Vdss) were calculated by AUMC0–inf/AUC0–inf, Dose/AUC0–inf and CLtot × MRT, respectively. Oral bioavailability (F) was estimated by comparing dose-normalized AUC0–inf after oral (AUC0–inf.po) and intravenous (AUC0–inf.iv) administration as follows: F (%) = (AUC0–inf.po/AUC0–inf.iv) × 100.

[2] = PK study in mice (intravenous and oral); assay type: in vivo
Protocol: Female BALB/cAnNCrj-nu/nu mice were purchased from Charles River Laboratories (Kanagawa, Japan) and were acclimatized for 9 days prior to use in the PK study. At the dosing day, 7-week-old mice were used. E7080 was dissolved in 5% glucose injection to make a 0.3 mg/mL solution for intravenous administration and dissolved in water to make 0.3, 1, and 3 mg/mL solutions for oral administrations. Lenvatinib was intravenously administered at the dose of 3 mg/kg via the tail vein using a disposable syringe and oral administration was performed by gastric gavage at the doses of 3, 10, and 30 mg/kg at the dosing volume of 10 mL/kg (n = 3/time point/dose). Whole blood samples were drawn from the vena cava using heparinized syringes at 5, 15, and 30 min, and 1, 2, 4, 6, 8, 12, and 24 h postdose. Plasma samples were obtained by centrifugation and aliquots of plasma were transferred to a tube and stored below − 15 °C until assayed.
as §1

[3] = male, cynomolgus monkey, plasma, intravenous 3 mg/kg
[4] = male, cynomolgus monkey, plasma, oral 3 mg/kg
[5] = male, cynomolgus, cynomolgus monkey, plasma, oral 3 mg/kg
[6] = female, BALB/cAnNCrj-nu/nu, mouse, plasma, intravenous 3 mg/kg
[7] = female, BALB/cAnNCrj-nu/nu, mouse, plasma, oral 3 mg/kg
[8] = female, BALB/cAnNCrj-nu/nu, mouse, plasma, oral 10 mg/kg
[9] = female, BALB/cAnNCrj-nu/nu, mouse, plasma, oral 30 mg/kg

With `COc1cc2nccc(Oc3ccc(NC(=O)NC4CC4)c(Cl)c3)c2cc1C(N)=O` [lenvatinib, Lenvatinib] the “CLint (hepatic intrinsic clearance)” value ([1]; estimated from oral PK, Fa and Fg assumed unity, BW 5 kg) was 37,063 mL/h, the MRT [1, 3] was 3.32 ± 0.15 h and the half-life [1, 3] was 4.28 ± 0.34 h. It also gave a Cmax [1, 4] of 2500 ± 450 ng/mL, an MRT [1, 4] of 4.23 ± 0.31 h and a Tmax ([1]; male, cynomolgus monkey, plasma, oral 3 mg/kg, median (range)) of 2 h. For the same compound, the AUC(0-inf) ([1]; male, cynomolgus, cynomolgus monkey, plasma, intravenous 3 mg/kg) was 12900 ± 1060 ng·h/mL, the C0 ([1]; male, cynomolgus, cynomolgus monkey, plasma, intravenous 3 mg/kg, extrapolated) was 5170 ± 949 ng/mL and the clearance ([1]; male, cynomolgus, cynomolgus monkey, plasma, intravenous 3 mg/kg, read-out: CLtot (converted)) was 3.97 mL/min/kg. The Vd ([1]; male, cynomolgus, cynomolgus monkey, plasma, intravenous 3 mg/kg, read-out: Vdss) was 0.794 ± 0.0882 L/kg, the AUC(0-inf) [1, 5] was 10300 ± 1510 ng·h/mL and the half-life [1, 5] was 4.07 ± 0.29 h. For the same compound, the bioavailability ([1]; male, cynomolgus, cynomolgus monkey, plasma, oral 3 mg/kg vs intravenous 3 mg/kg, read-out: F (oral bioavailability)) was 78.4 ± 5.4%, the “CLint (hepatic intrinsic clearance)” value ([2]; estimated from oral PK, Fa and Fg assumed unity, BW 0.02 kg) was 325 mL/h and the AUC(0-inf) [2, 6] was 8690 ng·h/mL. The MRT [2, 6] was 2.07 h, the C0 ([2]; female, BALB/cAnNCrj-nu/nu, mouse, plasma, intravenous 3 mg/kg, extrapolated) was 8290 ng/mL and the clearance ([2]; female, BALB/cAnNCrj-nu/nu, mouse, plasma, intravenous 3 mg/kg, read-out: CLtot (converted)) was 5.75 mL/min/kg. The Vd ([2]; female, BALB/cAnNCrj-nu/nu, mouse, plasma, intravenous 3 mg/kg, read-out: Vdss) was 0.714 L/kg, the half-life ([2]; female, BALB/cAnNCrj-nu/nu, mouse, plasma, iv, 3 mg/kg, intravenous 3 mg/kg) was 2.05 h and the AUC(0-inf) [2, 7] was 5600 ng·h/mL. For the same compound, the Cmax [2, 7] was 1970 ng/mL, the MRT [2, 7] was 3.28 h and the Tmax [2, 7] was 0.5 h. The bioavailability ([2]; female, BALB/cAnNCrj-nu/nu, mouse, plasma, oral 3 mg/kg vs intravenous 3 mg/kg, read-out: F (oral bioavailability)) was 64.4%, the AUC(0-inf) [2, 8] was 27700 ng·h/mL and the Cmax [2, 8] was 10500 ng/mL. For the same compound, the MRT [2, 8] was 3.01 h, the Tmax [2, 8] was 0.5 h and the AUC(0-inf) [2, 9] was 118000 ng·h/mL. The Cmax [2, 9] was 31300 ng/mL, the MRT [2, 9] was 3.29 h and the Tmax [2, 9] was 1 h. For the same compound, the half-life ([2]; female, BALB/cAnNCrj-nu/nu, mouse, plasma, po, 3 mg/kg, oral 3 mg/kg) was 2.09 h, the half-life ([2]; female, BALB/cAnNCrj-nu/nu, mouse, plasma, po, 10 mg/kg, oral 10 mg/kg) was 1.74 h and the half-life ([2]; female, BALB/cAnNCrj-nu/nu, mouse, plasma, po, 30 mg/kg, across 3, 10, and 30 mg/kg) was 1.74 to 2.09 h. It also gave a half-life ([2]; female, BALB/cAnNCrj-nu/nu, mouse, plasma, po, 30 mg/kg, oral 30 mg/kg) of 1.85 h.
